Reference: the NIST ThermoML archive (doi:10.1016/j.fluid.2018.09.024)
Numbers after ± are expanded uncertainties.

Experiment: activity coefficient (dimensionless); of the first substance listed, at infinite dilution; xn = mol fraction of the nth substance listed
Settings: 101.33 kPa, Liquid, Chromatography, x1 = 0

Row | SMILES | activity coefficient (318.15 K) | activity coefficient (328.15 K) | activity coefficient (338.15 K) | activity coefficient (348.15 K) | activity coefficient (358.15 K) | activity coefficient (368.15 K) | activity coefficient (378.15 K)
1 | C=Cc1ccccc1 [styrene] + CCCCCCCCCCCC[N+](C)(C)CCOc1ccccc1.O=S(=O)([N-]S(=O)(=O)C(F)(F)F)C(F)(F)F | 0.632 ± 0.044 | 0.672 ± 0.046 | 0.711 ± 0.047 | 0.75 ± 0.049 | 0.788 ± 0.051 | 0.83 ± 0.05 | –
2 | C1CCOC1 [tetrahydrofuran] + CCCCCCCCCCCC[N+](C)(C)CCOc1ccccc1.N#C[N-]C#N | – | 0.704 ± 0.047 | 0.726 ± 0.048 | 0.749 ± 0.049 | 0.77 ± 0.05 | 0.791 ± 0.051 | 0.81 ± 0.052
3 | C1CCOC1 [tetrahydrofuran] + CCCCCCCCCCCC[N+](C)(C)CCOc1ccccc1.O=S(=O)([N-]S(=O)(=O)C(F)(F)F)C(F)(F)F | 0.364 ± 0.033 | 0.39 ± 0.034 | 0.418 ± 0.035 | 0.446 ± 0.036 | 0.473 ± 0.037 | 0.502 ± 0.038 | –
4 | c1ccsc1 [thiophene] + CCCCCCCCCCCC[N+](C)(C)CCOc1ccccc1.N#C[N-]C#N | – | 0.648 ± 0.044 | 0.674 ± 0.046 | 0.699 ± 0.047 | 0.724 ± 0.048 | 0.749 ± 0.049 | 0.773 ± 0.051
5 | c1ccsc1 [thiophene] + CCCCCCCCCCCC[N+](C)(C)CCOc1ccccc1.O=S(=O)([N-]S(=O)(=O)C(F)(F)F)C(F)(F)F | 0.534 ± 0.039 | 0.562 ± 0.04 | 0.591 ± 0.042 | 0.62 ± 0.043 | 0.649 ± 0.044 | 0.68 ± 0.046 | –
6 | Cc1ccccc1 [toluene] + CCCCCCCCCCCC[N+](C)(C)CCOc1ccccc1.N#C[N-]C#N | – | 1.05 ± 0.07 | 1.1 ± 0.07 | 1.15 ± 0.07 | 1.19 ± 0.08 | 1.24 ± 0.08 | 1.28 ± 0.08
7 | Cc1ccccc1 [toluene] + CCCCCCCCCCCC[N+](C)(C)CCOc1ccccc1.O=S(=O)([N-]S(=O)(=O)C(F)(F)F)C(F)(F)F | 0.681 ± 0.046 | 0.725 ± 0.048 | 0.766 ± 0.05 | 0.81 ± 0.052 | 0.851 ± 0.055 | 0.893 ± 0.057 | –
8 | C=COC(C)=O [vinyl acetate] + CCCCCCCCCCCC[N+](C)(C)CCOc1ccccc1.N#C[N-]C#N | – | 1.24 ± 0.08 | 1.28 ± 0.08 | 1.31 ± 0.09 | 1.35 ± 0.09 | 1.38 ± 0.09 | 1.41 ± 0.09
9 | C=COC(C)=O [vinyl acetate] + CCCCCCCCCCCC[N+](C)(C)CCOc1ccccc1.O=S(=O)([N-]S(=O)(=O)C(F)(F)F)C(F)(F)F | 0.393 ± 0.034 | 0.414 ± 0.034 | 0.434 ± 0.035 | 0.453 ± 0.036 | 0.473 ± 0.037 | 0.493 ± 0.038 | –
10 | O [water] + CCCCCCCCCCCC[N+](C)(C)CCOc1ccccc1.N#C[N-]C#N | – | 0.467 ± 0.036 | 0.479 ± 0.037 | 0.489 ± 0.037 | 0.5 ± 0.04 | 0.51 ± 0.038 | 0.52 ± 0.039
11 | O [water] + CCCCCCCCCCCC[N+](C)(C)CCOc1ccccc1.O=S(=O)([N-]S(=O)(=O)C(F)(F)F)C(F)(F)F | 3.65 ± 0.25 | 3.32 ± 0.23 | 3.04 ± 0.21 | 2.8 ± 0.19 | 2.59 ± 0.18 | 2.4 ± 0.16 | –
